Measured values published in patent EP4813990A1, “COMPOUND FOR TREATING CANCER” (INNOLAKE BIOPHARMA (HANGZHOU) CO., LTD., priority 2023, dated 2025).
Like-named read-outs stand apart in the source and are kept apart here.

Assays:
A2aR [1] = molecular target: T1, A2aR (Homo sapiens, UniProt P29274); assay: Antagonism of A2aR activity at the cellular level; format: cell-based
Description: (§1) Meanwhile, ILB-2109 had high selectivity for A2aR (compared with A1, A2b and A3 receptors, the selectivity was 18.9 times, 40.7 times and 3424.7 times respectively).

CHL cells = assay: Chromosome aberration test; format: cell-based; settings: CHL cells treated at 3.2, 16.0 and 80.0 µg/mL
Description: The test observed the effect of ILB-2109 on chromosome structure and number of mammalian cells (CHL cells).

Caco-2 cells = assay: Caco-2 permeability; format: in vitro ADME
Plasma protein binding = format: in vitro ADME; settings: one range given for CD-1 mice, Sprague-Dawley rats, Beagle dogs and cynomolgus monkeys
[2] = Excretion of total radioactivity in bile duct cannulated (BDC) rats; format: in vivo
[3] = 4-week repeated-dose toxicity test in rats; parameters: species or system SD rats; settings: Sprague-Dawley, rat, in vivo
Experimental: In accordance with the relevant requirements of the Good Laboratory Practice for Non-clinical Drug Studies issued by the National Medical Products Administration of the People's Republic of China, and following the test protocol and revisions, the safety pharmacology test, single-dose toxicity, genetic toxicity, etc. of ILB-2109 were explored.
SD rats were given continuous intragastric administration of ILB-2109 at doses of 0 (vehicle), 60, 200 and 600 mg/kg for 28 consecutive days. […] WBC and #LYMPH increased or tended to increase in medium and high-dose groups; GLU decreased or tended to decrease in medium and high-dose groups; CREA and UREA increased or tended to increase in female high-dose group; GLOB increased and A/G decreased in female animals of each dose group. […] All the above changes completely recovered during the recovery period. […] ILB-2109 may have toxic effects on digestive system (liver function), blood system (granulocyte series) and urinary system (renal function) of SD rats, which can be reversed at the end of the recovery period.

A2aR [4] = molecular target: T1, A2aR; assay: Inhibition of binding of A2aR to its isotopically labeled ligand
Description: as §1

A1 receptor = A1 receptor (Homo sapiens, UniProt P30542); assay: Adenosine receptor selectivity, A2aR compared with A1; format: binding
Description: as §1

[5] = In vivo metabolism in cynomolgus monkeys (plasma profile); settings: male and female monkeys
Description: In in vivo metabolism experiments of cynomolgus monkeys, the relative abundance of parent drug ILB-2109 in plasma samples of male and female monkeys was more than 83%, which was the main component in plasma samples. ILB-2109 was mainly metabolized via oxidation, dehydrogenation and glucuronidation in monkey plasma.

[6] = Excretion of total radioactivity in intact rats; format: in vivo
Experimental: Excretion mainly occurred within 48 hours after administration, accounting for about 88.01% of the administered dose.

[7] = BDC rats, 0-72 hours after single oral administration
[8] = 0-168 hours after single oral administration

T1 sequence (P29274 whole entry): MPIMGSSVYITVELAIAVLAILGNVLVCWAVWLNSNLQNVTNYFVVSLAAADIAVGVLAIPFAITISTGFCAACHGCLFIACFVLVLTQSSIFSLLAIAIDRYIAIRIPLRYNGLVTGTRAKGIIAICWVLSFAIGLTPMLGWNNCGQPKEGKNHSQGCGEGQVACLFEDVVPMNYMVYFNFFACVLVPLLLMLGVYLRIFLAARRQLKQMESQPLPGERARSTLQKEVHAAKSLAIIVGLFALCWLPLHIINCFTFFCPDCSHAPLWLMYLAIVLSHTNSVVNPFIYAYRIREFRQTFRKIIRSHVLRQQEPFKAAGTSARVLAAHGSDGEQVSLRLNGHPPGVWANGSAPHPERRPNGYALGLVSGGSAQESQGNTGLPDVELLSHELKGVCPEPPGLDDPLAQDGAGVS
Chain of A1 receptor (P30542 whole entry): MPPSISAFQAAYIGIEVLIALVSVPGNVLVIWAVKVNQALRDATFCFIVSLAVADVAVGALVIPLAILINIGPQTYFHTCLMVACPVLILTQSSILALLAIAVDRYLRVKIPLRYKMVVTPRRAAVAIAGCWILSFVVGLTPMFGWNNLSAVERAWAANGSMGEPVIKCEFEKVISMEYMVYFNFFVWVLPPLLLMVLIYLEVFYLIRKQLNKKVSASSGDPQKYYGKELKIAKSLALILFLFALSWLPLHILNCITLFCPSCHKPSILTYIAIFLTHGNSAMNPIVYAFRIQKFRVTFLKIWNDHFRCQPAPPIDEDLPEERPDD

Cc1cc(-c2c(-c3ccccc3)nc(N)n3nc(CO)nc23)cc(C(F)(F)F)n1 [ILB-2109]
IC50 (A2aR [1]; antagonism of A2aR activity): 0.43 nM
IC50 (A2aR [1]; tumor physiological equivalent conditions (NECA 5 µM)): 1.08 nM
chromosome aberration test result (CHL cells): negative
efflux transporter substrate (Caco-2 cells; Caco-2 cells): most likely a substrate of efflux transporters
permeability in Caco-2 cells (Caco-2 cells; according to existing classification standards): high permeability
binding rate in plasma (Plasma protein binding): 87.3%-95.0%
average of total radioactivity recovery [2, 7]: 93.63%
cage washing and cleaning fluid, share of the administered dose [2, 7]: 0.85%
feces, share of the administered dose [2, 7]: 14.45%
total biliary excretion, share of the administered dose [2, 7]: 66.17%
urine, share of the administered dose [2, 7]: 12.16%
oral absorption rate ([2]; from total radioactive excretion of bile and urine in BDC rats): at least 78.33%
AUC(0-t) ([3]; oral, female SD rats, 600 mg/kg (MTD), 4-week study, read-out: AUC0-24h): 725 µg·h/mL
Cmax ([3]; oral, female SD rats, 600 mg/kg (MTD), 4-week study, read-out: Cmax): 69400 ng/mL
AUC(0-t) ([3]; oral, male SD rats, 600 mg/kg (MTD), 4-week study, read-out: AUC0-24h): 481 µg·h/mL
Cmax ([3]; oral, male SD rats, 600 mg/kg (MTD), 4-week study, read-out: Cmax): 36300 ng/mL
NOAEL at 28 days ([3]; both sexes, po): 60 mg/kg
MTD at 28 days ([3]; both sexes, po, SD rats, intragastric, 28 consecutive days): 600 mg/kg
AUC(0-t) ([3]; female, 60 mg/kg): 296 µg·h/mL
Cmax ([3]; female, 60 mg/kg): 22200 ng/mL
AUC(0-t) ([3]; male, 60 mg/kg): 114 µg·h/mL
Cmax ([3]; male, 60 mg/kg): 15900 ng/mL
IC50 (A2aR [4]): 2.92 nM
selectivity for A2aR compared with A1 receptor (A1 receptor): 18.9 times
relative abundance of parent drug in plasma samples [5]: more than 83%
average of total radioactivity recovery [6, 8]: 91.74%
cage washing and cleaning fluid, share of the administered dose [6, 8]: 2.75%
feces, share of the administered dose [6, 8]: 75.17%
total urinary excretion, share of the administered dose [6, 8]: 13.81%
excretion within 48 hours, share of the administered dose ([6]; within 48 hours after administration): about 88.01%
